Measured values taken from patent publication US20250152675A1, “I-TYPE RECOMBINANT COLLAGEN WITH HIGH TRANSDERMAL ABSORBABILITY, AND USE THEREOF” (XI'AN GIANT BIOGENE TECHNOLOLGY CO., LTD, priority 2022, published 2025).
Residues, ends and D or L forms follow the SMILES beside them.

Experiment: Transdermal penetration through ex vivo mouse skin in a single-chamber diffusion cell, content by BCA kit
Assay type: in vitro ADME, Kunming mice
Details: collagen peptide 5 mg/ml in 0.9% NaCl, diffusion area 2.0 cm^2, 37.5° C.
Experimental: 1. Preparation of Mouse Skin Ex Vivo 10 Kunming mice of 20 to 22 g with half male and half […] were used in the experiment. After the mice were killed, the hairs on the abdomen were removed. Then the skin on the hair-removed area was peeled off, stripped of fat and tendons, and rinsed repeatedly with distilled water. After being washed, the mouse skins were rinsed with normal saline, then treated with 10% glycerol, and stored at −20° C. for use (use up within 7 days).
Single-chamber diffusion cell: The effective diffusion area of the diffusion cell is 2.0 cm^2, the volume of the receiving cell is 14 ml, the length of the custom-made stirrer is 1.4 cm, and the receiving solution is 0.9% NaCl solution.
The stored mouse skin was taken out, thawed, washed with normal saline, and sandwiched between the receiving chamber and the supplying chamber, with the medicated side facing the supplying chamber and the skin side facing the receiving chamber. The temperature of the water bath system was adjusted to 37.5° C., and the stirring speed was adjusted to 100 rpm/min. 0.9% NaCl solution pre-warmed at 37° C. was added to the receiving chamber and the air bubbles were exhausted, in order to reduce the interference, the inner surface of the mouse skin was firstly contacted with the receiving solution without medication and all the receiving solution was replaced. Then the 27 collagen peptides synthesized were prepared into 5 mg/ml solutions using 0.9% NaCl respectively, which were injected into the supplying chamber and firmly adhere to the mouse skin respectively. After 24 h, part of the receiving solution was absorbed with a syringe as the sample solution to determine the transdermal amount of collagen peptide.
The BCA kit method was used to determine the polypeptide content in the sample solution. […]

24h penetration amount [µg]	SMILES
2199.78	CSCC[C@H](NC(=O)[C@@H]1CCCN1C(=O)CNC(=O)[C@@H]1CCCN1C(=O)[C@@H]1CCCN1C(=O)CNC(=O)[C@H](CCCNC(=N)N)NC(=O)[C@H](CCC(=O)O)NC(=O)CNC(=O)[C@H](CO)NC(=O)[C@H](C)NC(=O)CNC(=O)[C@H](CO)NC(=O)[C@@H]1CCCN1C(=O)CNC(=O)[C@H](CCC(N)=O)NC(=O)[C@H](CCCCN)NC(=O)CNC(=O)[C@@H]1CCCN1C(=O)[C@H](CCC(=O)O)NC(=O)CNC(=O)[C@H](CO)NC(=O)[C@@H]1CCCN1C(=O)CNC(=O)[C@@H]1CCCN1C(=O)[C@H](CC(C)C)NC(=O)CNC(=O)[C@@H]1CCCN1C(=O)[C@H](Cc1ccccc1)NC(=O)CNC(=O)[C@H](CCCNC(=N)N)NC(=O)[C@H](CCC(=O)O)NC(=O)CN)C(=O)NCC(=O)N1CCC[C@H]1C(=O)N1CCC[C@H]1C(=O)O [compound 21] (H-GERGFPGLPGPSGEPGKQGPSGASGERGPPGPMGPP-OH; N-terminus and C-terminus assumed)
2092.23	CC(C)C[C@H](NC(=O)CNC(=O)[C@@H](NC(=O)[C@@H](NC(=O)CN)C(C)C)C(C)C)C(=O)N1CCC[C@H]1C(=O)NCC(=O)N[C@@H](CCC(N)=O)C(=O)N[C@@H](CCCNC(=N)N)C(=O)NCC(=O)N[C@@H](CCC(=O)O)C(=O)N[C@@H](CCCNC(=N)N)C(=O)NCC(=O)N[C@@H](Cc1ccccc1)C(=O)N1CCC[C@H]1C(=O)NCC(=O)N[C@@H](CC(C)C)C(=O)N1CCC[C@H]1C(=O)NCC(=O)N1CCC[C@H]1C(=O)N[C@@H](CO)C(=O)NCC(=O)N[C@@H](CCC(=O)O)C(=O)N1CCC[C@H]1C(=O)NCC(=O)N[C@@H](CCCCN)C(=O)N[C@@H](CCC(N)=O)C(=O)NCC(=O)N1CCC[C@H]1C(=O)N[C@@H](CO)C(=O)NCC(=O)N[C@@H](C)C(=O)N[C@@H](CO)C(=O)NCC(=O)N[C@@H](CCC(=O)O)C(=O)N[C@@H](CCCNC(=N)N)C(=O)O [compound 22] (H-GVVGLPGQRGERGFPGLPGPSGEPGKQGPSGASGER-OH; N-terminus and C-terminus assumed)
2323.45	CSCC[C@H](NC(=O)[C@@H]1CCCN1C(=O)CNC(=O)[C@@H]1CCCN1C(=O)[C@@H]1CCCN1C(=O)CNC(=O)[C@H](CCCNC(=N)N)NC(=O)[C@H](CCC(=O)O)NC(=O)CNC(=O)[C@H](CO)NC(=O)[C@H](C)NC(=O)CNC(=O)[C@H](CO)NC(=O)[C@@H]1CCCN1C(=O)CNC(=O)[C@H](CCC(N)=O)NC(=O)[C@H](CCCCN)NC(=O)CNC(=O)[C@@H]1CCCN1C(=O)[C@H](CCC(=O)O)NC(=O)CN)C(=O)NCC(=O)N1CCC[C@H]1C(=O)N1CCC[C@H]1C(=O)NCC(=O)N[C@@H](CC(C)C)C(=O)N[C@@H](C)C(=O)NCC(=O)N1CCC[C@H]1C(=O)N1CCC[C@H]1C(=O)NCC(=O)N[C@@H](CCC(=O)O)C(=O)N[C@@H](CO)C(=O)NCC(=O)N[C@@H](CCCNC(=N)N)C(=O)N[C@@H](CCC(=O)O)C(=O)O [compound 23] (H-GEPGKQGPSGASGERGPPGPMGPPGLAGPPGESGRE-OH; N-terminus and C-terminus assumed)
2234.67	CSCC[C@H](NC(=O)[C@@H]1CCCN1C(=O)CNC(=O)[C@@H]1CCCN1C(=O)[C@@H]1CCCN1C(=O)CNC(=O)[C@H](CCCNC(=N)N)NC(=O)[C@H](CCC(=O)O)NC(=O)CN)C(=O)NCC(=O)N1CCC[C@H]1C(=O)N1CCC[C@H]1C(=O)NCC(=O)N[C@@H](CC(C)C)C(=O)N[C@@H](C)C(=O)NCC(=O)N1CCC[C@H]1C(=O)N1CCC[C@H]1C(=O)NCC(=O)N[C@@H](CCC(=O)O)C(=O)N[C@@H](CO)C(=O)NCC(=O)N[C@@H](CCCNC(=N)N)C(=O)N[C@@H](CCC(=O)O)C(=O)NCC(=O)N[C@@H](C)C(=O)N1CCC[C@H]1C(=O)NCC(=O)N[C@@H](C)C(=O)N[C@@H](CCC(=O)O)C(=O)NCC(=O)N[C@@H](CO)C(=O)N1CCC[C@H]1C(=O)NCC(=O)N[C@@H](CCCNC(=N)N)C(=O)N[C@@H](CC(=O)O)C(=O)O [compound 24] (H-GERGPPGPMGPPGLAGPPGESGREGAPGAEGSPGRD-OH; N-terminus and C-terminus assumed)
2255.78	CC(C)C[C@H](NC(=O)[C@H](CC(=O)O)NC(=O)CNC(=O)[C@@H]1CCCN1C(=O)[C@@H](NC(=O)CNC(=O)[C@H](CCC(N)=O)NC(=O)[C@H](CCC(=O)O)NC(=O)CNC(=O)[C@@H]1CCCN1C(=O)[C@H](CCCCN)NC(=O)CNC(=O)[C@H](C)NC(=O)[C@H](CCC(=O)O)NC(=O)CNC(=O)[C@@H]1CCCN1C(=O)[C@@H]1CCCN1C(=O)CN)C(C)C)C(=O)NCC(=O)N[C@@H](C)C(=O)N1CCC[C@H]1C(=O)NCC(=O)N1CCC[C@H]1C(=O)N[C@@H](CO)C(=O)NCC(=O)N[C@@H](C)C(=O)N[C@@H](CCCNC(=N)N)C(=O)NCC(=O)N[C@@H](CCC(=O)O)C(=O)N[C@@H](CCCNC(=N)N)C(=O)NCC(=O)N[C@@H](Cc1ccccc1)C(=O)N1CCC[C@H]1C(=O)NCC(=O)N[C@@H](CCC(=O)O)C(=O)N[C@@H](CCCNC(=N)N)C(=O)O [compound 25] (H-GPPGEAGKPGEQGVPGDLGAPGPSGARGERGFPGER-OH; N-terminus and C-terminus assumed)
2054.99	CC(C)[C@H](NC(=O)CNC(=O)[C@H](CCCNC(=N)N)NC(=O)[C@H](CCC(=O)O)NC(=O)CNC(=O)[C@@H]1CCCN1C(=O)[C@H](Cc1ccccc1)NC(=O)CNC(=O)[C@H](CCCNC(=N)N)NC(=O)[C@H](CCC(=O)O)NC(=O)CNC(=O)[C@H](CCCNC(=N)N)NC(=O)[C@H](C)NC(=O)CNC(=O)[C@H](CO)NC(=O)[C@@H]1CCCN1C(=O)CNC(=O)[C@@H]1CCCN1C(=O)[C@H](C)NC(=O)CN)C(=O)N[C@@H](CCC(N)=O)C(=O)NCC(=O)N1CCC[C@H]1C(=O)N1CCC[C@H]1C(=O)NCC(=O)N1CCC[C@H]1C(=O)N[C@@H](C)C(=O)NCC(=O)N1CCC[C@H]1C(=O)N[C@@H](CCCNC(=N)N)C(=O)NCC(=O)N[C@@H](C)C(=O)N[C@@H](CC(N)=O)C(=O)NCC(=O)N[C@@H](C)C(=O)N1CCC[C@H]1C(=O)O [compound 26] (H-GAPGPSGARGERGFPGERGVQGPPGPAGPRGANGAP-OH; N-terminus and C-terminus assumed)
2186.24	CC(C)[C@H](NC(=O)CNC(=O)[C@H](CCCNC(=N)N)NC(=O)[C@H](CCC(=O)O)NC(=O)CN)C(=O)N[C@@H](CCC(N)=O)C(=O)NCC(=O)N1CCC[C@H]1C(=O)N1CCC[C@H]1C(=O)NCC(=O)N1CCC[C@H]1C(=O)N[C@@H](C)C(=O)NCC(=O)N1CCC[C@H]1C(=O)N[C@@H](CCCNC(=N)N)C(=O)NCC(=O)N[C@@H](C)C(=O)N[C@@H](CC(N)=O)C(=O)NCC(=O)N[C@@H](C)C(=O)N1CCC[C@H]1C(=O)NCC(=O)N[C@@H](CC(N)=O)C(=O)N[C@@H](CC(=O)O)C(=O)NCC(=O)N[C@@H](C)C(=O)N[C@@H](CCCCN)C(=O)NCC(=O)N[C@@H](CC(=O)O)C(=O)N[C@@H](C)C(=O)NCC(=O)N[C@@H](C)C(=O)N1CCC[C@H]1C(=O)NCC(=O)N[C@@H](C)C(=O)N1CCC[C@H]1C(=O)O [compound 27] (H-GERGVQGPPGPAGPRGANGAPGNDGAKGDAGAPGAP-OH; N-terminus and C-terminus assumed)
